Reference: patent US11993599B2, “Therapeutic compounds” (Genentech, Inc., priority 2021, dated 2024)

How the values were obtained:
BRM = BRM (Homo sapiens, UniProt P51531); assay: Immunofluorescence assay for BRM degradation in SW1573 cells; type: cell-based; design: treated overnight at 4° C. with either BRM primary antibody (Cell signaling Cat #11966) or BRG primary antibody; endogenous in cells; host or cells: SW1573; conditions: 20 hours incubation; for DC50: immunofluorescence mean nuclear signal, read-out: BRM IF Degradation IC50; for BRM IF Degradation Sinf (%): normalized to a known degrader control
Chain of BRM (P51531 whole entry): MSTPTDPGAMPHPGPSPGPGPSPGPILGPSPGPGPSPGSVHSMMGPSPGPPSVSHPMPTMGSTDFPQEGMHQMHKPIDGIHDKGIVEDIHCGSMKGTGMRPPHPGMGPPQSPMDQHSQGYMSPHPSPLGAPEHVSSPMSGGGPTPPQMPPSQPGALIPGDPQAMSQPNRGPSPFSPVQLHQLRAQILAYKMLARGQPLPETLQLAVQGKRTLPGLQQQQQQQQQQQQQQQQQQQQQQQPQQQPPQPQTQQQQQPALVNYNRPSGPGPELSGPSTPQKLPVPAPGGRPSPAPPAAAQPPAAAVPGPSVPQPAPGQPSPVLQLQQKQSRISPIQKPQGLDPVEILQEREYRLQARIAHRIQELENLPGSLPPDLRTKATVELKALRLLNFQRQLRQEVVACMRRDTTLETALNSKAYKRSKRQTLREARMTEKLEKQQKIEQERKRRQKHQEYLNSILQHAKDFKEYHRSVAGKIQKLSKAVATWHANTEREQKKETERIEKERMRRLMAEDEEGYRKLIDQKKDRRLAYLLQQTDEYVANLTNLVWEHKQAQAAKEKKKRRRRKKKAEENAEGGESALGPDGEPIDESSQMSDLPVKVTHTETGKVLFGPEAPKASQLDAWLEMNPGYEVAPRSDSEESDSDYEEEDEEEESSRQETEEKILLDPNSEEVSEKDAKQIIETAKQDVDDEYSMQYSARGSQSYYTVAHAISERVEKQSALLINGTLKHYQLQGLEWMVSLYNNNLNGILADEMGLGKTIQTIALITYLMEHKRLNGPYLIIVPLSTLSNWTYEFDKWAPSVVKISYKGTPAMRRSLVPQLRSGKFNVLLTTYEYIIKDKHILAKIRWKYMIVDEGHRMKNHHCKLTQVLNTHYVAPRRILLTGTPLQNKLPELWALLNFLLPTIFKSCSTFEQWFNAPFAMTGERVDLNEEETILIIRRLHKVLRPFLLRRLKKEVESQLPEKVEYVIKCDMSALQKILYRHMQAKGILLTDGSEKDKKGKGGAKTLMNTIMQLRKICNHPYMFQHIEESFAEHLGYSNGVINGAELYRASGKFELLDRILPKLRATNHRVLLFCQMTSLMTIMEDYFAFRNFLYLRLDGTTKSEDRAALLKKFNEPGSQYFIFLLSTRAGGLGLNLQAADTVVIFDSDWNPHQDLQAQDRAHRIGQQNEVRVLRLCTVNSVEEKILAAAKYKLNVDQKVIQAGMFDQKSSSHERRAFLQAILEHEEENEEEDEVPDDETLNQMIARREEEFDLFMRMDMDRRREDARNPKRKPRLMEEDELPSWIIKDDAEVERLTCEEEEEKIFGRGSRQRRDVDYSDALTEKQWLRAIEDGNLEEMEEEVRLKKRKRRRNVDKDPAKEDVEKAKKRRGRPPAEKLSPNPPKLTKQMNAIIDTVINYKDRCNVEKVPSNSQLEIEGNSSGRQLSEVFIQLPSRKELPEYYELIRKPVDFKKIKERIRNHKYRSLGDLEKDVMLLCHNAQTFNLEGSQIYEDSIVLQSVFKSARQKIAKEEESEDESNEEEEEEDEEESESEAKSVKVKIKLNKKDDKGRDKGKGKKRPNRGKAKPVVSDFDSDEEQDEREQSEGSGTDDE
Outline: (§1)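 After a 20 h incubation with test compound, SW1573 cells are fixed and stained for BRM or BRG1 plus Hoechst. Per-cell mean nuclear intensity, referenced to a degrader control, is fit concentration-dependently with unconstrained maximum for Dmax.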

BRG1 = biological target: T1, BRG1 (Homo sapiens, UniProt P51532); assay: Immunofluorescence assay for BRG1 degradation in SW1573 cells; type: cell-based; conditions: 20 hours incubation; for DC50: immunofluorescence mean nuclear signal, read-out: BRG1 IF Degradation IC50; for Dmax: SW1573, 20 h, normalized to a known degrader control, read-out: BRG1 IF Degradation Sinf (%)
T1 construct: either BRM primary antibody (Cell signaling Cat #11966) or BRG primary antibody (Abcam, ab 110641); endogenous in cells; host or cells: SW1573
T1 sequence (P51532 whole entry): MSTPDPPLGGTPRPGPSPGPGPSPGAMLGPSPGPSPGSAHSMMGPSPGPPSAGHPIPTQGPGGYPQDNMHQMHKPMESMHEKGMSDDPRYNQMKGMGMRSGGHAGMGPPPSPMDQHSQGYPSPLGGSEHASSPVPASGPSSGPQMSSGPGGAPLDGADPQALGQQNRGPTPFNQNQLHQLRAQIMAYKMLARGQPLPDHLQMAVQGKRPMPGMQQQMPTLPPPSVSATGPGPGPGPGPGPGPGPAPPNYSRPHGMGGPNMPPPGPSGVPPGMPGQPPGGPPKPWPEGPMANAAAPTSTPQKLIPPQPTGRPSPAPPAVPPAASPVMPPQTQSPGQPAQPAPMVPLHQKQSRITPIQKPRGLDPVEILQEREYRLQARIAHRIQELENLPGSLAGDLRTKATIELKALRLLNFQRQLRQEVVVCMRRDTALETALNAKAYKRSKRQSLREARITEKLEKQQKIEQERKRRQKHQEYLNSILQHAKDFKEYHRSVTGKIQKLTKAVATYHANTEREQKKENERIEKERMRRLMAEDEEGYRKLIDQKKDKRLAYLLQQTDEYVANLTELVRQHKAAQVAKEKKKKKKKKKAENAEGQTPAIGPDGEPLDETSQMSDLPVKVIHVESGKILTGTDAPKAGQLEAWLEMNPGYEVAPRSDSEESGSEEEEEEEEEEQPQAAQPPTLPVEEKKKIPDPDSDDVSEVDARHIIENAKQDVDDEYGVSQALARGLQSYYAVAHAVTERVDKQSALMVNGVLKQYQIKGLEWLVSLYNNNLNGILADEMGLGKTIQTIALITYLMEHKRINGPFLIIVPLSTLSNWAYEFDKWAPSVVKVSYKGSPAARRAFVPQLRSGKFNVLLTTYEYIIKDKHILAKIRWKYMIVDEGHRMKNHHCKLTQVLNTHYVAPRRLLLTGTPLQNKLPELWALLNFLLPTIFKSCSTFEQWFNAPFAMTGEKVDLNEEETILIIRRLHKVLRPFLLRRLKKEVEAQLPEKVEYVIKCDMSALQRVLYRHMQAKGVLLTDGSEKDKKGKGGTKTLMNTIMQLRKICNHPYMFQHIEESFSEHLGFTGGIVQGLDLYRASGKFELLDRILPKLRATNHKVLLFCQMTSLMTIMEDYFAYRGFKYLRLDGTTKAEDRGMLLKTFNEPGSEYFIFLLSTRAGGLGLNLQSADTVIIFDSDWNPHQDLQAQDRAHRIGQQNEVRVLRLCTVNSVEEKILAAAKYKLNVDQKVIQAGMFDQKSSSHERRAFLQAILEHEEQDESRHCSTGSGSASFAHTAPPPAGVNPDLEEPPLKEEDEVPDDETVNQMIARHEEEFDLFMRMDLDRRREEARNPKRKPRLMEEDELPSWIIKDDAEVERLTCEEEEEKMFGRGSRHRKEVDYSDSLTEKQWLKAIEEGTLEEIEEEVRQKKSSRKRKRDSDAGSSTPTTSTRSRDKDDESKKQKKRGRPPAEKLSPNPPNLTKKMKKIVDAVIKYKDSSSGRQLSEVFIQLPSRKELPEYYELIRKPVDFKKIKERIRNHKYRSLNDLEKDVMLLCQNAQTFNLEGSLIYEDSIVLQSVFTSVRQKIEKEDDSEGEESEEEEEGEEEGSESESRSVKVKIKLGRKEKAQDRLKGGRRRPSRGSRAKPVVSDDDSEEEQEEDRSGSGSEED
Outline: as §1

Row | Structure (SMILES) | DC50 (BRM) [nM] | BRM IF Degradation Sinf (%) (BRM) | DC50 (BRG1) [nM] | Dmax (BRG1) [%]
1 | COC1(C)CN(CC#Cc2cc(N3C4CCC3CN(c3cc(-c5ccccc5O)nnc3N)C4)ccn2)C1 [Compound 169, 2-[6-amino-5-[8-[2-[3-(3-methoxy-3-methyl-azetidin-1-yl)prop-1-ynyl]-4-pyridyl]-3,8-diazabicyclo[3.2.1]octan-3-yl]pyridazin-3-yl]phenol] | < 10 | E (E indicates −30%-−70%) | 10 to 100 | 30 to 70
2 | CC1(O)CCN(CC#Cc2cc(N3C4CCC3CN(c3cc(-c5ccccc5O)nnc3N)C4)ccn2)C1 (centres unmarked) [Compound 62, 1-[3-[4-[3-[3-amino-6-(2-hydroxyphenyl)pyridazin-4-yl]-3,8-diazabicyclo[3.2.1]octan-8-yl]-2-pyridyl]prop-2-ynyl]-3-methyl-pyrrolidin-3-ol] | < 10 | E (E indicates −30%-−70%) | < 10 | 30 to 70
3 | CC1CN(CC#Cc2cc(N3C4CCC3CN(c3cc(-c5ccccc5O)nnc3N)C4)ccn2)C1 [Compound 172, 2-[6-amino-5-[8-[2-[3-(3-methylazetidin-1-yl)prop-1-ynyl]-4-pyridyl]-3,8-diazabicyclo[3.2.1]octan-3-yl]pyridazin-3-yl]phenol] | < 10 | E (E indicates −30%-−70%) | 10 to 100 | 71 to 120
4 | Nc1nnc(-c2ccccc2O)cc1N1CC2CCC(C1)N2c1ccnc(C#CCN2C[C@H]3CCCC[C@H]3C2)c1 [Compound 60, 2-[5-[8-[2-[3-[(3aS,7aR)-1,3,3a,4,5,6,7,7a-octahydroisoindol-2-yl]prop-1-ynyl]-4-pyridyl]-3,8-diazabicyclo[3.2.1]octan-3-yl]-6-amino-pyridazin-3-yl]phenol] | < 10 | E (E indicates −30%-−70%) | < 10 | 30 to 70
5 | Nc1nnc(-c2ccccc2O)cc1N1CC2CCC(C1)N2c1ccnc(C#CCN2CCCCC(CO)C2)c1 (centres unmarked) [Compound 214, 2-[6-amino-5-[8-[2-[3-[3-(hydroxymethyl)azepan-1-yl]prop-1-ynyl]-4-pyridyl]-3,8-diazabicyclo[3.2.1]octan-3-yl]pyridazin-3-yl]phenol] | < 10 | F (F indicates −71%-−120%) | < 10 | 30 to 70
6 | CC1(C)CN(CC#Cc2cc(N3C4CCC3CN(c3cc(-c5ccccc5O)nnc3N)C4)ccn2)C1 [Compound 135, 2-[6-amino-5-[8-[2-[3-(3,3-dimethylazetidin-1-yl)prop-1-ynyl]-4-pyridyl]-3,8-diazabicyclo[3.2.1]octan-3-yl]pyridazin-3-yl]phenol] | < 10 | E (E indicates −30%-−70%) | < 10 | 30 to 70
7 | Nc1nnc(-c2ccccc2O)cc1N1CC2CCC(C1)N2c1ccnc(C#CCN2C[C@H]3CC[C@@H]2C3)c1 [Compound 115, 2-[6-amino-5-[8-[2-[3-[(1R,4S)-2-azabicyclo[2.2.1]heptan-2-yl]prop-1-ynyl]-4-pyridyl]-3,8-diazabicyclo[3.2.1]octan-3-yl]pyridazin-3-yl]phenol] | < 10 | E (E indicates −30%-−70%) | < 10 | 30 to 70
8 | Nc1nnc(-c2ccccc2O)cc1N1CC2CCC(C1)N2c1ccnc(C#CCN2CCCCCC2)c1 [Compound 58, 2-(6-amino-5-(8-(2-(3-(azepan-1-yl)prop-1-yn-1-yl)pyridin-4-yl)-3,8-diazabicyclo[3.2.1]octan-3-yl)pyridazin-3-yl)phenol] | < 10 | F (F indicates −71%-−120%) | < 10 | 30 to 70
9 | Nc1nnc(-c2ccccc2O)cc1N1CC2CCC(C1)N2c1ccnc(C#CCCN2CCCCCC2)c1 [Compound 222, 2-[6-amino-5-[8-[2-[4-(azepan-l-yl)but-1-ynyl]-4-pyridyl]-3,8-diazabicyclo[3.2.1]octan-3-yl]pyridazin-3-yl]phenol] | < 10 | F (F indicates −71%-−120%) | < 10 | 71 to 120
10 | Nc1nnc(-c2ccccc2O)cc1N1CC2CCC(C1)N2c1ccnc(C#CCN2CC3(CCOCC3)C2)c1 [Compound 49, 2-[6-amino-5-[8-[2-[3-(7-oxa-2-azaspiro[3.5]nonan-2-yl)prop-1-ynyl]-4-pyridyl]-3,8-diazabicyclo[3.2.1]octan-3-yl]pyridazin-3-yl]phenol] | < 10 | F (F indicates −71%-−120%) | < 10 | 30 to 70
11 | Nc1nnc(-c2ccccc2O)cc1N1CC2CCC(C1)N2c1ccnc(C#CCN2C3CCC(C3)C2CO)c1 (centres unmarked) [Compound 103, 2-[6-amino-5-[8-[2-[3-[3-(hydroxymethyl)-2-azabicyclo[2.2.1]heptan-2-yl]prop-1-ynyl]-4-pyridyl]-3,8-diazabicyclo[3.2.1]octan-3-yl]pyridazin-3-yl]phenol] | < 10 | E (E indicates −30%-−70%) | > 100 | 30 to 70
12 | CN1C[C@@H]2C[C@H]1CN2CC#Cc1cc(N2C3CCC2CN(c2cc(-c4ccccc4O)nnc2N)C3)ccn1 [Compound 164, 2-[6-amino-5-[8-[2-[3-[(1S,4S)-5-methyl-2,5-diazabicyclo[2.2.1]heptan-2-yl]prop-1-ynyl]-4-pyridyl]-3,8-diazabicyclo[3.2.1]octan-3-yl]pyridazin-3-yl]phenol] | 10 to 100 | E (E indicates −30%-−70%) | > 100 | 0 to 30
13 | Nc1nnc(-c2ccccc2O)cc1N1CC2CCC(C1)N2c1ccnc(C#CCN2CCCCC(O)(CF)C2)c1 (centres unmarked) [Compound 241, 1-[3-[4-[3-[3-amino-6-(2-hydroxyphenyl)pyridazin-4-yl]-3,8-diazabicyclo[3.2.1]octan-8-yl]-2-pyridyl]prop-2-ynyl]-3-(fluoromethyl)azepan-3-ol] | 10 to 100 | E (E indicates −30%-−70%) | < 10 | 0 to 30
14 | Nc1nnc(-c2ccccc2O)cc1N1CC2CCC(C1)N2c1ccnc(C#CCN2CC(O)(C3CC3)C2)c1 [Compound 154, 1-[3-[4-[3-[3-amino-6-(2-hydroxyphenyl)pyridazin-4-yl]-3,8-diazabicyclo[3.2.1]octan-8-yl]-2-pyridyl]prop-2-ynyl]-3-cyclopropyl-azetidin-3-ol] | < 10 | F (F indicates −71%-−120%) | < 10 | 30 to 70
15 | CC1CN(CC#Cc2cc(N3C4CCC3CN(c3cc(-c5ccccc5O)nnc3N)C4)ccn2)CCCC1O (centres unmarked) [Compound 196, 1-[3-[4-[3-[3-amino-6-(2-hydroxyphenyl)pyridazin-4-yl]-3,8-diazabicyclo[3.2.1]octan-8-yl]-2-pyridyl]prop-2-ynyl]-3-methyl-azepan-4-ol] | < 10 | F (F indicates −71%-−120%) | < 10 | 71 to 120
16 | COC(=O)C1CCS(=O)(=O)C12CN(CC#Cc1cc(N3C4CCC3CN(c3cc(-c5ccccc5O)nnc3N)C4)ccn1)C2 (centres unmarked) [Compound 183, methyl 2-[3-[4-[3-[3-amino-6-(2-hydroxyphenyl)pyridazin-4-yl]-3,8-diazabicyclo[3.2.1]octan-8-yl]-2-pyridyl]prop-2-ynyl]-5,5-dioxo-51ambda6-thia-2-azaspiro[3.4]octane-8-carboxylate] | > 100 | E (E indicates −30%-−70%) | > 100 | 
17 | Nc1nnc(-c2ccccc2O)cc1N1CC2CCC(C1)N2c1ccnc(C#CCN2CC3CCCC(C2)O3)c1 [Compound 101, 2-[6-amino-5-[8-[2-[3-(9-oxa-3-azabicyclo[3.3.1]nonan-3-yl)prop-l-ynyl]-4-pyridyl]-3,8-diazabicyclo[3.2.1]octan-3-yl]pyridazin-3-yl]phenol] | 10 to 100 | E (E indicates −30%-−70%) | > 100 | 
18 | CN(CC#Cc1cc(N2C3CCC2CN(c2cc(-c4ccccc4O)nnc2N)C3)ccn1)CC(=O)N1CCOCC1 [Compound 85, 2-[3-[4-[3-[3-amino-6-(2-hydroxyphenyl)pyridazin-4-yl]-3,8-diazabicyclo[3.2.1]octan-8-yl]-2-pyridyl]prop-2-ynyl-methyl-amino]-1-morpholino-ethanone] | > 100 | E (E indicates −30%-−70%) | > 100 | 
19 | Nc1nnc(-c2ccccc2O)cc1N1CC2CCC(C1)N2c1ccnc(C#CCN2CCCC(F)(F)CC2)c1 [Compound 189, 2-[6-amino-5-[8-[2-[3-(4,4-difluoroazepan-1-yl)prop-1-ynyl]-4-pyridyl]-3,8-diazabicyclo[3.2.1]octan-3-yl]pyridazin-3-yl]phenol] | < 10 | F (F indicates −71%-−120%) | < 10 | 30 to 70
20 | Nc1nnc(-c2ccccc2O)cc1N1CC2CCC(C1)N2c1cnnc(C#CCN2CCCCCC2)c1 [Compound 246, 2-(6-amino-5-(8-(6-(3-(azepan-1-yl)prop-1-yn-1-yl)pyridazin-4-yl)-3,8-diazabicyclo[3.2.1]octan-3-yl)pyridazin-3-yl)phenol] | 10 to 100 | F (F indicates −71%-−120%) | < 10 | 71 to 120
